Reference: PubChem BioAssay AID179 (DTP/NCI, 2004)
Values joined by “and” are separate entries in the source; they are usually repeats but may differ in a detail not shown here. Equal values may be shown once. Active and inactive are the calls of the source.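 How the source made its calls: active means compounds giving half or more protection of infected cells from virus-caused growth loss, again on retest; inactive means the rest.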

Test system: CEM cells HIV-1 protection, formazan growth assay
Assay: NCI AIDS Antiviral Assay
Settings: for IC50: measured here: growth of uninfected CEM cells
Method in brief: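 Five concentrations of each compound were applied to infected and uninfected human CEM cells. Protection from HIV-1 was judged from growth measured with a soluble formazan assay.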

| Structure (SMILES) | EC50 [µM] | IC50 | outcome |
| --- | --- | --- | --- |
| COc1ccc(NC(C)=O)cc1N1C(=O)/C(=C\c2cccc(Oc3ccccc3)c2)S(=O)(=O)C1c1ccccc1 (stereo not given) | > 200 | 33.1 µM | – |
| O=[N+]([O-])c1cc(C(F)(F)F)cc2n[se]nc12 | – | – | inactive |
| COc1cc2cc(C(=O)N3CC(CCl)c4c3cc(NC(=O)OCc3ccc([N+](=O)[O-])cc3)c3ccccc43)[nH]c2c(OC)c1OC (stereo not given) | > 200 | 2.88 µM | – |
| CC(C)CC(NC(=O)OC(C)(C)C)C(=O)Nc1ccc(Nc2nc(F)nc(-c3c4ccccc4c4n3CCS4)n2)cc1 (stereo not given) | > 6.03 | > 6.03 µM | – |
| Cc1cc2c(cc1Cl)SSc1cc(Cl)c(C)cc1S(=O)(=O)Nc1nc(N)nn1C(O)n1nc(N)nc1NS2(=O)=O | 89.1 | > 100 µM | – |
| Cc1cn(C2CC(NC(=O)NO[Si](C)(C)C(C)(C)C)C(CO[Si](C)(C)C(C)(C)C)O2)c(=O)[nH]c1=O (stereo not given) | > 200 | 95.5 µM | – |
| NC(Cc1ccc(O)c(O)c1)P(=O)(O)O (stereo not given) | > 200 | 24.5 µM | – |
| N#C/C(=C\c1ccc(-c2ccccc2)cc1)C(=O)c1ccccc1 | > 83.2 | 27.5 µM | – |
| CCN(CCN(CC)C(=O)NC)C(=O)NC | > 200 | > 200 µM | – |
| COC(=O)C1(SC)C2CCC3C2CCC31 (stereo not given) | > 200 | > 200 µM | – |
| CC(=O)C(CN(CC(C)C)CC(C)C)C(c1ccccc1)c1c(O)c2ccccc2oc1=O (stereo not given) | > 28.2 | > 28.2 µM | – |
| O=C1C2=C(CC3C(C2)C3(Br)Br)C(=O)C2=C1CC1C(C2)C1(Br)Br (stereo not given) | > 9.33 | > 9.33 µM | – |
| CN=C(NCCCN1CCOCC1)c1ccc(NC(=O)c2ccc(C(=O)Nc3ccc(C(=NC)NCCCN4CCOCC4)cc3)cc2)cc1 | > 200 | 120 µM | – |
| CSc1nc(NC2OC(CO)C(O)C(O)C2O)cc(=O)n1C (stereo not given) | – | – | inactive |
| C=CCNC(=S)/N=C/c1c(O)[nH]c(=O)[nH]c1=O | – | – | inactive |
| COc1ccc(OC)c2c(C(C)=O)cccc12 | > 200 | 97.7 µM | – |

| Structure (SMILES) | EC50 [µM] | IC50 | outcome |
| --- | --- | --- | --- |
| COC(=O)Nc1nc2ccc(C(=O)c3ccc[nH]3)cc2[nH]1 | > 200 | 0.977 µM and 1.66 µM | – |
| NC(=O)CCC(NS(=O)(=O)c1ccc(NC(=O)c2ccccc2)cc1)C(=O)O (stereo not given) | > 617 | > 617 µM | – |
| CC1(C)[C@H]2CC[C@]1(C)[C@H](OC(=O)NNC(=O)O[C@@H]1C[C@@H]3CC[C@@]1(C)C3(C)C)C2 | > 200 | 12.6 µM | – |
| O=C1c2ccncc2C(=O)c2c1[nH]c1ccccc21 | > 200 | 3.16 µM | – |
| OC(C/C(=N\N=C(/CC(O)(C(F)(F)F)C(F)(F)F)c1ccccc1)c1ccccc1)(C(F)(F)F)C(F)(F)F | > 200 | > 200 µM | – |
| C=C(CN(C)C)C(=O)c1ccc(OC)cc1 | – | – | inactive |
| CN1C(=O)c2ccccc2C(O)(c2ccccc2)C1(O)c1ccccc1 (stereo not given) | > 200 | 64.6 µM | – |
| CC(C)(C)OC(=O)CN1CCNCCN(CC(=O)OC(C)(C)C)CCNCC1 | > 200 | 13.8 µM | – |
| COc1ccc2c(c1)NC1(O)c3ccccc3C(=O)C21O (stereo not given) | > 331 | > 331 µM | – |
| CC1=C(C(=O)Nc2ccccc2)C(c2cc(Cl)cc(Cl)c2)C(C(=O)Nc2ccccc2)=C(C)N1 | > 14.5 | > 14.5 µM | – |
| Cc1ccc(S(=O)c2sccc2C=O)cc1 (stereo not given) | > 200 | 9.77 µM | – |
| Cn1c(-c2ccc(/C=N/NC(=S)N/N=C/c3ccc(-c4c[n+]5ccsc5n4C)cc3)cc2)c[n+]2ccsc12 | > 200 | 117 µM | – |
| CCOC(=O)/C(F)=C/c1cccc(C#N)c1 | > 117 | > 117 µM | – |
| C=C(C)Cn1c(=O)c2c(ncn2C)n(C)c1=O | > 200 | > 200 µM | – |
| c1ccc(N=c2sc3ccccc3sc2=Nc2ccccc2)cc1 | > 200 | 3.09 µM | – |
| O=C1c2ccccc2C(=O)C2C3c4ccccc4C(c4ccccc43)C12 (stereo not given) | > 15.5 | > 15.5 µM | – |
